Data reported in ChEMBL document CHEMBL5316291 (J Med Chem, 2023).
Each block holds one molecule with its values, some of them ahead of it.

Experiments:
[1] = target: Poly [ADP-ribose] polymerase 1 (Homo sapiens, UniProt P09874); assay: Inhibition of human recombinant N-terminal GST-tagged PARP1 (2 to 1014 end residues) incubated for 1 hr by ELISA assay
[2] = target: T1, Protein mono-ADP-ribosyltransferase TIPARP (Homo sapiens) (UniProt Q7Z3E1); assay: Inhibition of human recombinant N-terminal FLAG tagged PARP7 (400 to 657 end residues) at 100 nM incubated for 1 hr by ELISA assay relative to control
T1 sequence (whole entry): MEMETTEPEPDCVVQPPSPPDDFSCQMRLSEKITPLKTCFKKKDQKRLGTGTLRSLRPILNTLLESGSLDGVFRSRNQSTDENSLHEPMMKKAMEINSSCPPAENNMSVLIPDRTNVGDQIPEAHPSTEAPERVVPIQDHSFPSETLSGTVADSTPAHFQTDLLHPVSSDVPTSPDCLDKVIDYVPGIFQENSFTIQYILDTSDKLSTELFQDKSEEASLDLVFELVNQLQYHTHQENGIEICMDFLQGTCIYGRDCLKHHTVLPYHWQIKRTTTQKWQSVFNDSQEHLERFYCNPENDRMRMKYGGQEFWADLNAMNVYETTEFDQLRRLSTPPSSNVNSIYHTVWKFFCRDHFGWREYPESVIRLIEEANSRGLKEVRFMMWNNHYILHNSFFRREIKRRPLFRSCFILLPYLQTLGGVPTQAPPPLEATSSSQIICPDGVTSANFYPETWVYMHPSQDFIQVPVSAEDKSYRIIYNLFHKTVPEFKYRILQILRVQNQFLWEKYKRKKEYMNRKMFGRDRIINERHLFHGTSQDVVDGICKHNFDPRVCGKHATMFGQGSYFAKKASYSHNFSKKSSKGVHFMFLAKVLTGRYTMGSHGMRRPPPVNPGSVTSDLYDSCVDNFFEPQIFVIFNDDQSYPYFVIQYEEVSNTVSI

[3] = target: T2, Protein mono-ADP-ribosyltransferase TIPARP (Homo sapiens, UniProt Q7Z3E1); assay: Inhibition of human recombinant N-terminal FLAG tagged PARP7 (400 to 657 end residues) incubated for 1 hr by ELISA assay
T2 sequence (Q7Z3E1 whole entry): T1 sequence (whole entry)

[4] = Toxicity in BALB/c mouse implanted with mouse CT26 cells assessed as lung damage at 100 mg/kg, po measured for 14 days by hematoxylin and eosin staining based fluorescence microscopic analysis; type: organism-based; conditions: in vivo, 336 h, time 14 day
[5] = system: CT26; assay: Antitumor activity against mouse CT26 cells implanted in BALB/c mouse assessed as increase in infiltration of CD3 positive CD4 positive T lymphocytes in tumors at 100 mg/kg, po measured after 14 days by flow cytometry (reference value: 7.95%); type: functional; conditions: time 14 day
[6] = AUC(0 to infinity) in ICR mouse at 1 mg/kg, iv measured upto 24 hrs by LC-MS/MS analysis; type: ADME, organism-based; design: time < 24 hrs, dose 1 mg/kg, route iv; conditions: in vivo
[7] = Oral bioavailability in ICR mouse at 10 mg/kg measured upto 24 hrs by LC-MS/MS analysis; type: ADME, organism-based; conditions: in vivo
[8] = Toxicity in BALB/c mouse implanted with mouse CT26 cells assessed as kidney damage at 100 mg/kg, po measured for 14 days by hematoxylin and eosin staining based fluorescence microscopic analysis; type: organism-based; conditions: in vivo, 336 h, time 14 day
[9] = Half life in ICR mouse at 1 mg/kg, iv measured upto 24 hrs by LC-MS/MS analysis; type: ADME, organism-based; conditions: in vivo
[10] = Toxicity in BALB/c mouse implanted with mouse CT26 cells assessed as spleen damage at 100 mg/kg, po measured for 14 days by hematoxylin and eosin staining based fluorescence microscopic analysis; type: organism-based; conditions: in vivo, 336 h, time 14 day
[11] = Apparent volume of distribution in ICR mouse at 1 mg/kg, iv measured upto 24 hrs by LC-MS/MS analysis; type: ADME, organism-based; conditions: in vivo, read-out: Vz
[12] = Apparent volume of distribution in ICR mouse at 10 mg/kg, po measured upto 24 hrs by LC-MS/MS analysis; type: ADME, organism-based; conditions: in vivo
[13] = AUC(0 to infinity) in ICR mouse at 10 mg/kg, po measured upto 24 hrs by LC-MS/MS analysis; type: ADME, organism-based; design: dose 10 mg/kg, time < 24 hrs, route po; conditions: in vivo
[14] = Clearance in ICR mouse at 1 mg/kg, iv measured upto 24 hrs by LC-MS/MS analysis; type: ADME, organism-based; conditions: in vivo
[15] = Tmax in ICR mouse at 1 mg/kg, iv measured upto 24 hrs by LC-MS/MS analysis; type: ADME, organism-based; conditions: in vivo
[16] = Cytotoxicity against mouse AML12 cells assessed as inhibition of cell growth measured after 6 days by MTT assay; type: toxicity, cell-based
[17] = system: CT26; assay: Antitumor activity against mouse CT26 cells implanted in BALB/c mouse assessed as increase in infiltration of CD4 positive CD8 positive T lymphocytes in tumors at 100 mg/kg, po measured after 14 days by flow cytometry (reference value: 6.67%); type: functional; conditions: time 14 day
[18] = system: CT26; assay: Antitumor activity against mouse CT26 cells xenografted in BALB/c mouse assessed as tumor growth inhibition at 100 mg/kg, po bid measured for 14 days; type: functional; conditions: CT26, 336 h, time 14 day, read-out: TGI
[19] = MRT(0 to infinity) in ICR mouse at 10 mg/kg, po measured upto 24 hrs by LC-MS/MS analysis; type: ADME, organism-based; conditions: in vivo
[20] = Clearance in ICR mouse at 10 mg/kg, po measured upto 24 hrs by LC-MS/MS analysis; type: ADME, organism-based; conditions: in vivo
[21] = Tmax in ICR mouse at 10 mg/kg, po measured upto 24 hrs by LC-MS/MS analysis; type: ADME, organism-based; conditions: in vivo
[22] = Initial plasma concentration in ICR mouse at 1 mg/kg, iv measured upto 24 hrs by LC-MS/MS analysis; type: ADME, organism-based
[23] = Toxicity in BALB/c mouse implanted with mouse CT26 cells assessed as liver damage at 100 mg/kg, po measured for 14 days by hematoxylin and eosin staining based fluorescence microscopic analysis; type: organism-based; conditions: in vivo, 336 h, time 14 day
[24] = Half life in ICR mouse at 10 mg/kg, po measured upto 24 hrs by LC-MS/MS analysis; type: ADME, organism-based; conditions: in vivo
[25] = MRT(0 to infinity) in ICR mouse at 1 mg/kg, iv measured upto 24 hrs by LC-MS/MS analysis; type: ADME, organism-based; conditions: in vivo

Sequence of Poly [ADP-ribose] polymerase 1 (P09874 whole entry): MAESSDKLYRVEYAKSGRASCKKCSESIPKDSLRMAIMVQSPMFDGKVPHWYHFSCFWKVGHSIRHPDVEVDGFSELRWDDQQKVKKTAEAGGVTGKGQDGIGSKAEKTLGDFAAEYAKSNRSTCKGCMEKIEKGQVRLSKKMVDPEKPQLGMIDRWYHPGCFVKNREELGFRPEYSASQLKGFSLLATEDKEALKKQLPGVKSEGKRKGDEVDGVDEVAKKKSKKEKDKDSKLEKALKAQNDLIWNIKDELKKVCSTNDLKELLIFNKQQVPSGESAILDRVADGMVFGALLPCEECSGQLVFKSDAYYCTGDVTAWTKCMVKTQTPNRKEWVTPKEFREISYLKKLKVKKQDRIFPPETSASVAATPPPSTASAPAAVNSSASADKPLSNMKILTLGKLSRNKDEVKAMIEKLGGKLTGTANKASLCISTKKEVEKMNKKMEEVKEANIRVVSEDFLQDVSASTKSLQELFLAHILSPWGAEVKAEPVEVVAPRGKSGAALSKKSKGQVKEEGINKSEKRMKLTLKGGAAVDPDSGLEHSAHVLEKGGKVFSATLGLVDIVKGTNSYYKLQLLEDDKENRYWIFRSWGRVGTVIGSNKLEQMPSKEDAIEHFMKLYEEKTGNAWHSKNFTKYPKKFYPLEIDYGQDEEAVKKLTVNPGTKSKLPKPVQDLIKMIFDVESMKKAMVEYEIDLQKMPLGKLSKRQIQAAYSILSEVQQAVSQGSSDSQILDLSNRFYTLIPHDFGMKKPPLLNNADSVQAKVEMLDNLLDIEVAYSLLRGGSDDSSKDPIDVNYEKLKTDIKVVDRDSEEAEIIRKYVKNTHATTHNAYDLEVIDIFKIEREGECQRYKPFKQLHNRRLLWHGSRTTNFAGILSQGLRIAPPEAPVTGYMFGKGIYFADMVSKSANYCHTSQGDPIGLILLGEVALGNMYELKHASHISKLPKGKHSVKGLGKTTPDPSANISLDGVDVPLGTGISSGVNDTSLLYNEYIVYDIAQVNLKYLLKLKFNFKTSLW

Structure (SMILES): C[C@@H](CN1CC(C(=O)NC2CN(c3ncc(C(F)(F)F)cn3)C2)C1)Nc1cn[nH]c(=O)c1C(F)(F)F
inhibition [2]: 51%

Structure (SMILES): C[C@@H](CN1CC(C(=O)N2C3CC2CN(c2ncc(C(F)(F)F)cn2)C3)C1)Nc1cn[nH]c(=O)c1C(F)(F)F
IC50 [3]: 116 nM
inhibition [2]: 55.5%

Structure (SMILES): C[C@@H](CN1CC(C(=O)N2CCN(c3ncccn3)CC2)C1)Nc1cn[nH]c(=O)c1C(F)(F)F
inhibition [2]: 18%

Structure (SMILES): C[C@@H](CN1CC(C(=O)N2CCN(c3ccc4c(c3)OC(F)(F)O4)CC2)C1)Nc1cn[nH]c(=O)c1C(F)(F)F
IC50 [3]: 19.4 nM
inhibition [2]: 90%

Structure (SMILES): C[C@@H](COCCC(=O)N1CCN(c2ncc(C(F)(F)F)cn2)CC1)Nc1cn[nH]c(=O)c1C(F)(F)F [ATAMPARIB]
Activity [4]: Non-Toxic
Activity [5]: 48.2%
AUC [6]: 256 ng·h/mL
bioavailability [7]: 25.7%
Activity [8]: Non-Toxic
t1/2 [9]: 9 min
Activity [10]: Non-Toxic
Vd [11]: 0.872 L/kg
Vz [12]: 19.694 L/kg
AUC [13]: 656 ng·h/mL
clearance [14]: 67 mL/min/kg
Tmax [15]: 4.8 min
IC50 at 6 days [16]: > 50000 nM
Activity [17]: 19.1%
inhibition in vivo at 100 mg/kg [18]: 30%
MRT inf [19]: 54 min
CL/F [20]: 259 mL/min/kg
Tmax [21]: 13.2 min
C0 at 24 h [22]: 1230 ng/mL
Activity [23]: Non-Toxic
t1/2 [24]: 54 min
MRT inf [25]: 12 min

Structure (SMILES): C[C@@H](CN1CC(C(=O)N2CCN(c3cccc4c3oc3ccccc34)CC2)C1)Nc1cn[nH]c(=O)c1C(F)(F)F
inhibition [2]: 35%

Structure (SMILES): CC1CN(c2ncc(C(F)(F)F)cn2)CC(C)N1C(=O)C1CN(C[C@H](C)Nc2cn[nH]c(=O)c2C(F)(F)F)C1 (some centres undefined)
IC50 [3]: 110 nM
inhibition [2]: 77%

Structure (SMILES): C[C@@H](CN1CC(C(=O)N2CCN(c3ncc(S(C)(=O)=O)cn3)CC2)C1)Nc1cn[nH]c(=O)c1C(F)(F)F
IC50 [3]: 29.2 nM
inhibition [2]: 95%

Structure (SMILES): O=C(C1CN(CCNc2cn[nH]c(=O)c2C(F)(F)F)C1)N1CCN(c2ncc(C(F)(F)F)cn2)CC1
IC50 [3]: 39.3 nM
inhibition [2]: 66.8%

Structure (SMILES): O=C(C1CN(CC2(Nc3cn[nH]c(=O)c3C(F)(F)F)CC2)C1)N1CCN(c2ncc(C(F)(F)F)cn2)CC1
inhibition [2]: 39.6%

Results, then the molecule that gave them:

IC50 [1]: 1130 nM
inhibition [2]: 44.9%
Structure (SMILES): C[C@@H](CN1CCC(C(=O)N2CCN(c3ncc(C(F)(F)F)cn3)CC2)C1)Nc1cn[nH]c(=O)c1C(F)(F)F (some centres undefined)

inhibition [2]: 56%
Structure (SMILES): COc1cnc(N2CCN(C(=O)C3CN(C[C@H](C)Nc4cn[nH]c(=O)c4C(F)(F)F)C3)CC2)nc1

IC50 [3]: 34.5 nM
inhibition [2]: 71.5%
Structure (SMILES): C[C@@H](CN1CC(C(=O)N2CCN(c3ncc(C#N)cn3)CC2)C1)Nc1cn[nH]c(=O)c1C(F)(F)F

IC50 [3]: 42.4 nM
inhibition [2]: 51.4%
Structure (SMILES): Cc1cnc(N2CCN(C(=O)C3CN(C[C@H](C)Nc4cn[nH]c(=O)c4C(F)(F)F)C3)CC2)nc1

inhibition [2]: 40%
Structure (SMILES): C[C@@H](CN1CC(C(=O)N2CCN(c3ncc(-c4ccc(C(F)(F)F)cc4)cn3)CC2)C1)Nc1cn[nH]c(=O)c1C(F)(F)F

inhibition [2]: 26%
Structure (SMILES): C[C@@H](CN1CC(C(=O)N2CCN(c3ncc(F)cn3)CC2)C1)Nc1cn[nH]c(=O)c1C(F)(F)F

inhibition [2]: 75.5%
Structure (SMILES): C[C@@H](CN1CC(C(=O)N2CCN(c3ncc(Cl)cn3)CC2)C1)Nc1cn[nH]c(=O)c1C(F)(F)F

IC50 [3]: 14.5 nM
inhibition [2]: 82%
Structure (SMILES): C[C@@H](CN1CC(C(=O)N2CCN(c3ccc(C(F)(F)F)cn3)CC2)C1)Nc1cn[nH]c(=O)c1C(F)(F)F

IC50 [1]: > 5000 nM
inhibition [2]: 33.6%
Structure (SMILES): C[C@@H](CN1CCC(C(=O)N2CCN(c3ncc(C(F)(F)F)cn3)CC2)CC1)Nc1cn[nH]c(=O)c1C(F)(F)F

inhibition [2]: 65%
Structure (SMILES): C[C@@H](CN1CC(C(=O)N2CCN(c3nccc(C(F)(F)F)n3)CC2)C1)Nc1cn[nH]c(=O)c1C(F)(F)F

inhibition [2]: 32%
Structure (SMILES): C[C@@H](CN1CC(C(=O)N2CCN(c3ccc(C(F)(F)F)cc3)CC2)C1)Nc1cn[nH]c(=O)c1C(F)(F)F

IC50 [3]: 11.1 nM
inhibition [2]: 85.5%
Structure (SMILES): C[C@@H](CN1CC(C(=O)N2CCN(c3ncc(Br)cn3)CC2)C1)Nc1cn[nH]c(=O)c1C(F)(F)F
